Laboratory results: patent US11891386B2, “Indole compounds and their use” (ARIAGEN, INC., priority 2017, dated 2024)

Assays:
[1] = Hepatocyte intrinsic clearance assay, mouse hepatocytes; assay type: in vitro ADME; conditions: male, IRC/CD-1, cryopreserved mouse hepatocytes; Mouse Hepatocytes, 1 μM test compound
From the text: (§1) The liver is an important organ in the body for drug metabolism. This Example describes hepatocyte intrinsic clearance assays using both human and mouse hepatocytes to evaluate the metabolic stability of the indole compounds disclosed herein. The parameters measured include t1/2 (half-life), CLint (intrinsic clearance), and EH (hepatic extraction ratio).
(§2) Testosterone (Lot FE111011-01) was obtained from Cerilliant (Round Rock, TX). 7-hydroxycoumarin (Lot 11631ED) was obtained from Sigma Aldrich (St. Louis, MO). Cryopreserved human hepatocytes pooled from ten donor males (X008001), cryopreserved male IRC/CD-1 mouse hepatocytes (M005052), INVITROGRO HI Medium (incubation), and INVITROGRO HT Medium (thawing) were obtained from Bioreclamation IVT (Baltimore, MD). All solvents were obtained from commercial sources and used without further purification.
(§3) Each test compound was prepared as a 1 mM stock solution in DMSO. A 2 μM solution of test compound and positive controls were prepared in INVITROGRO HI Medium (incubation). These solutions were pre-warmed in a sterile incubator set to maintain 37° C., 5% CO2, and 98% humidity. Cryopreserved hepatocytes were prepared at a concentration of 2×10^6 living cells/mL in incubation media and pre-warmed in the incubator. The compound solutions and hepatocyte mixtures were then combined at a ratio of 1:1 (v:v). The final volume of the reaction mixture was 750 μL, containing 1 μM test compound (10 μM for 7-hydroxycoumarin) and […]. The reaction mixture was placed in the incubator on a plate shaker. After 0, 15, 30, 60, 90, and 120 minutes of incubation, 100 μL of reaction mixtures were removed from the incubation plate and mixed with 150 μL of ice-cold acetonitrile in a designated well of a 96-well crash plate. The 96-well crash plate was placed on ice for 15 min, and samples were centrifuged (3,600 RPM, 10 min, 4° C.) to precipitate protein. The supernatants were diluted 1:1 (v:v) with water containing 0.15 μM verapamil and/or 1 μM tolbutamide (internal standards for positive and negative modes, respectively) in a 96-well shallow injection plate. This plate was sealed for LC-MS analysis. All measurements were done in duplicate.
(§4) The residual compound remaining (% R) was determined from LC-MS peak areas by comparison to the zero time point. Metabolic half-life (t1/2) and intrinsic clearance (CLint) values were calculated from the slope of the plot of ln (% R) vs. time and the concentration of hepatocytes present in the incubation. Percent remaining at 60 minutes was calculated by plugging in the 60 minute value into the slope equation generated by the percent remaining time points.
(§5) In vivo hepatic clearance CLH was calculated using the well stirred liver model according to the following equation:
(§6) [formula] where QH is the total liver blood flow, fu is unbound fraction of the drug, and CL′int is defined as follows: CL′int=CLint×(10^6 cells/g of liver weight)×(g liver weight/kg of body weight). In the first approximation, used in this study, fu=1.
(§7) Hepatic extraction ratio EH was calculated using the following equation:
(§8) [formula] Corresponding physiological parameters used in calculations for all species are shown below in Table 5.

mouse hepatocytes = experiment: as above; assay type: in vitro ADME; conditions: for CLint (μL/min/10^6 ells) / EH (%) hepatic extraction ratio: Mouse Hepatocytes; for CLint (μL/min/10^6 ells): 1 μM test compound; for EH (%) hepatic extraction ratio: well stirred liver model, fu=1; for clearance / metabolic profile, in words / EH lower as compared to ARI-002, in words / times lower clearance as compared to ARI-002: mouse hepatocytes
From the text: as §1, §2, §3, §4, §5, §6, §7, §8

| SMILES | half-life at 1 μM [1] [h] | CLint (μL/min/10^6 ells) (mouse hepatocytes) | EH (%) hepatic extraction ratio (mouse hepatocytes) [%] | clearance / metabolic profile, in words (mouse hepatocytes) | EH lower as compared to ARI-002, in words (mouse hepatocytes) | times lower clearance as compared to ARI-002 (mouse hepatocytes) [times] |
| --- | --- | --- | --- | --- | --- | --- |
| COC(=O)c1csc(C(=O)c2c[nH]c3ccccc23)n1 [ARI-001, ITE] | 0.0917 | 585.7 μL/min/10^6 ells | 87 | – | – | – |
| CNC(=O)c1csc(C(=O)c2c[nH]c3ccccc23)n1 [ARI-004] | 0.0467 | 1,174.2 μL/min/10^6 ells | 93 | – | – | – |
| Cc1nc(-c2csc(C(=O)c3c[nH]c4ccccc34)n2)no1 [ARI-030, (1H-indol-3-yl)(4-(5-methyl-1,2,4-oxadiazol-3-yl)thiazol-2-yl)methanone] | 0.285 | 40.5 μL/min/10^6 ells | 70 | – | – | – |
| Cc1noc(-c2csc(C(=O)c3c[nH]c4ccccc34)n2)n1 [ARI-031, (1H-indol-3-yl)(4-(3-methyl-1,2,4-oxadiazol-5-yl)thiazol-2-yl)methanone] | 11.7 | 1.0 μL/min/10^6 ells | 6 | low clearance | – | – |
| CNC(=O)c1csc(C(=O)c2c[nH]c3ccc(Cl)cc23)n1 [ARI-049, 2-(5-chloro-1H-indole-3-carbonyl)-N-methylthiazole-4-carboxamide] | 1.59 | 7.3 μL/min/10^6 ells | 30 | lower clearance and EH value | – | – |
| COC(=O)c1csc(C(=O)c2c[nH]c3ccc(Cl)cc23)n1 [ARI-055, methyl 2-(5-chloro-1H-indole-3-carbonyl)thiazole-4-carboxylate] | 2.25 | 5.1 μL/min/10^6 ells | 23 | – | – | – |
| O=C(c1nc(-c2nnco2)cs1)c1c[nH]c2ccccc12 [ARI-056, (4-(1,3,4-oxadiazol-2-yl)thiazol-2-yl)(1H-indol-3-yl)methanone] | 0.447 | 25.8 μL/min/10^6 ells | 60 | – | – | – |
| Cc1nnc(-c2csc(C(=O)c3c[nH]c4ccccc34)n2)o1 [ARI-060, (1H-indol-3-yl)(4-(5-methyl-1,3,4-oxadiazol-2-yl)thiazol-2-yl)methanone] | 2.3 | 5.0 μL/min/10^6 ells | 23 | – | – | – |
| CNC(=O)c1csc(C(=O)c2c[nH]c3ccc(F)cc23)n1 [ARI-065, 2-(5-fluoro-1H-indole-3-carbonyl)-N-methylthiazole-4-carboxamide] | 1.62 | 7.1 μL/min/10^6 ells | 29 | lower clearance and EH value | – | – |
| COC(=O)c1csc(C(=O)c2c[nH]c3ccc(F)cc23)n1 [ARI-066, methyl 2-(5-fluoro-1H-indole-3-carbonyl)thiazole-4-carboxylate] | 0.223 | 51.9 μL/min/10^6 ells | 75 | – | – | – |
| CCC(=O)c1csc(C(=O)c2c[nH]c3ccc(Cl)cc23)n1 [ARI-067, 1-(2-(5-chloro-1H-indole-3-carbonyl)thiazol-4-yl)propan-1-one] | 3.54 | 3.3 μL/min/10^6 ells | 16 | – | – | – |
| Nc1nnc(-c2csc(C(=O)c3c[nH]c4ccccc34)n2)o1 [ARI-083, (4-(5-amino-1,3,4-oxadiazol-2-yl)thiazol-2-yl)(1H-indol-3-yl)methanone] | 16.1 | 0.7 μL/min/10^6 ells | 4 | lower clearance and hepatic extraction parameters than ARI-060 | – | – |
| CCC(=O)c1csc(C(=O)c2c[nH]c3ccc(F)cc23)n1 [ARI-087, 1-(2-(5-fluoro-1H-indole-3-carbonyl)thiazol-4-yl)propan-1-one] | 1.84 | 6.3 μL/min/10^6 ells | 27 | – | three times lower | 153 |
| Nc1nnc(-c2csc(C(=O)c3c[nH]c4ccccc34)n2)s1 [ARI-090, (4-(5-amino-1,3,4-thiadiazol-2-yl)thiazol-2-yl)(1H-indol-3-yl)methanone] | 4.7 | 2.5 μL/min/10^6 ells | 13 | – | – | – |
| Nc1nnc(-c2csc(C(=O)c3c[nH]c4c(F)cccc34)n2)o1 [ARI-118, (4-(5-amino-1,3,4-oxadiazol-2-yl)thiazol-2-yl)(7-fluoro-1H-indol-3-yl)methanone] | 14 | 0.8 μL/min/10^6 ells | 4.6 | low clearance | – | – |
| Nc1nnc(-c2csc(C(=O)c3c[nH]c4cc(Cl)c(Cl)cc34)n2)o1 [ARI-120, (4-(5-amino-1,3,4-oxadiazol-2-yl)thiazol-2-yl)(5,6-dichloro-1H-indol-3-yl)methanone] | 13.5 | 0.9 μL/min/10^6 ells | 4.8 | low clearance | – | – |
| CCC(=O)c1csc(C(=O)c2c[nH]c3c(F)cccc23)n1 [ARI-140, 1-(2-(7-fluoro-1H-indole-3-carbonyl)thiazol-4-yl)propan-1-one] | 7.5 | 1.5 μL/min/10^6 ells | 8.3 | – | – | – |
| CCC(=O)c1csc(C(=O)c2c[nH]c3cccc(F)c23)n1 [ARI-142, 1-(2-(4-fluoro-1H-indole-3-carbonyl)thiazol-4-yl)propan-1-one] | 1.1 | 11 μL/min/10^6 ells | 38 | – | – | – |
| CCC(=O)c1csc(C(=O)c2c[nH]c3cc(F)ccc23)n1 [ARI-143, 1-(2-(6-fluoro-1H-indole-3-carbonyl)thiazol-4-yl)propan-1-one] | 5.1 | 2.3 μL/min/10^6 ells | 12 | – | eight times lower | 418 |
| NCc1nnc(-c2csc(C(=O)c3c[nH]c4c(F)cccc34)n2)o1 [ARI-145, (4-(5-(aminomethyl)-1,3,4-oxadiazol-2-yl)thiazol-2-yl)(7-fluoro-1H-indol-3-yl)methanone] | 2.27 | 5.1 μL/min/10^6 ells | 23 | – | – | – |
| NCc1nc(-c2csc(C(=O)c3c[nH]c4c(F)cccc34)n2)no1 [ARI-146, (4-(5-(aminomethyl)-1,2,4-oxadiazol-3-yl)thiazol-2-yl)(7-fluoro-1H-indol-3-yl)methanone] | 1.67 | 6.9 μL/min/10^6 ells | 29 | – | – | – |
| Nc1nnc(-c2csc(C(=O)c3c[nH]c4ccc(F)cc34)n2)o1 [ARI-148, (4-(5-amino-1,3,4-oxadiazol-2-yl)thiazol-2-yl)(5-fluoro-1H-indol-3-yl)methanone] | 3.17 | 3.6 μL/min/10^6 ells | 18 | – | – | – |
| CCC(=O)c1csc(C(=O)c2c[nH]c3cc(F)c(F)cc23)n1 [ARI-149, 1-(2-(5,6-difluoro-1H-indole-3-carbonyl)thiazol-4-yl)propan-1-one] | 3.97 | 2.9 μL/min/10^6 ells | 15 | – | – | – |
